Measurements published in PubChem BioAssay (NCI).
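1) Cells in 96-well plates. 2) Compound, 48 h, 5 concentrations. 3) Linear interpolation between surrounding doses. 4) Unreached endpoint = highest concentration. The concentration for full growth arrest is given as TGI.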

What was measured:
Test in all cases: NCI tumour cell line growth inhibition, 48 h
SF-295 CNS = tested on: SF-295 CNS
PC-3 prostate = tested on: PC-3 prostate
NCI-H23 lung = tested on: NCI-H23 lung
HCT-15 colon = tested on: HCT-15 colon
IGROV1 ovarian = tested on: IGROV1 ovarian
RPMI-8226 leukemia = tested on: RPMI-8226 leukemia
K-562 leukemia = tested on: K-562 leukemia
KM12 colon = tested on: KM12 colon
DU-145 prostate = tested on: DU-145 prostate
A549 NSCLC = tested on: A549 NSCLC
NCI-H460 lung = tested on: NCI-H460 lung
OVCAR-3 ovarian = tested on: OVCAR-3 ovarian
U251 CNS = tested on: U251 CNS
HT29 colon = tested on: HT29 colon
OVCAR-4 ovarian = tested on: OVCAR-4 ovarian

Compound	TGI (SF-295 CNS) [µM]	TGI (PC-3 prostate) [µM]	TGI (NCI-H23 lung) [µM]	TGI (HCT-15 colon) [µM]	TGI (IGROV1 ovarian) [µM]	TGI (RPMI-8226 leukemia) [µM]	TGI (K-562 leukemia) [µM]	TGI (KM12 colon) [µM]	TGI (DU-145 prostate) [µM]	TGI (A549 NSCLC) [µM]	TGI (NCI-H460 lung) [µM]	TGI (OVCAR-3 ovarian) [µM]	TGI (U251 CNS) [µM]	TGI (HT29 colon) [µM]	TGI (OVCAR-4 ovarian) [µM]
COC(=O)c1ccc(C)cc1C1CN=NC12Cc1c(C)cccc1C2=O (stereo not given)	> 100	> 100	> 100	> 100	98	> 75.3	> 100	> 84.8	> 100	> 100	> 100	> 100	> 100	> 100	> 93.9
CN(C)Cc1cc(C(=O)/C=C/c2ccc(Cl)cc2Cl)cc(CN(C)C)c1O	14	6.19	22.6	14.6	10.4	> 100	5.29	4.51	16.7	11.9	4.4	11.6	15.7	6.91	13.1
NC(N)=N/N=C/c1c(Cl)nc2n1CCS2	> 100	> 100	> 100	> 100	> 100	> 100	> 100	> 100	> 100	> 100	> 100	> 100	> 100	> 100	> 100
